Test results as given in ChEMBL document CHEMBL1201862, “PubChem BioAssay data set” (2004).
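Five concentrations, 48 hours, 96-well plates. GI50 is the concentration that inhibits growth by half.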 Active and inactive are the calls of the source. No stated cut-off is given here; in the data, active = GI50 up to about 1.1 µM and inactive = higher.

Assays:
Assay in all cases: inhibition of tumour cell growth, NCI panel, 48 h
M14 = test system: M14
U-251 = test system: U-251
OVCAR-8 = test system: OVCAR-8
MCF7 = test system: MCF7
A498 = test system: A498
HOP-92 = test system: HOP-92
KM12 = test system: KM12
UACC-257 = test system: UACC-257
A549 = test system: A549
SNB-75 = test system: SNB-75
DU-145 = test system: DU-145
SK-MEL-5 = test system: SK-MEL-5
K562 = test system: K562
NCI-H23 = test system: NCI-H23
SK-OV-3 = test system: SK-OV-3
MOLT-4 = test system: MOLT-4
SK-MEL-28 = test system: SK-MEL-28
OVCAR-5 = test system: OVCAR-5
NCI/ADR-RES = test system: NCI/ADR-RES
786-0 = test system: 786-0
MDA-N = test system: MDA-N
PC-3 = test system: PC-3
HCT-116 = test system: HCT-116
MDA-MB-435 = test system: MDA-MB-435
LOX IMVI = test system: LOX IMVI
NCI-H522 = test system: NCI-H522
OVCAR-3 = test system: OVCAR-3
T47D = test system: T47D
UO-31 = test system: UO-31
SW-620 = test system: SW-620
HCT-15 = test system: HCT-15
HL-60 = test system: HL-60
HT-29 = test system: HT-29
OVCAR-4 = test system: OVCAR-4
CAKI-1 = test system: CAKI-1
SF-295 = test system: SF-295
NCI-H226 = test system: NCI-H226
SNB-19 = test system: SNB-19
Malme-3M = test system: Malme-3M
SK-MEL-2 = test system: SK-MEL-2
ACHN = test system: ACHN
SN12C = test system: SN12C
MDA-MB-231 = test system: MDA-MB-231
Hs-578T = test system: Hs-578T
TK-10 = test system: TK-10
SF-539 = test system: SF-539
CCRF-CEM = test system: CCRF-CEM
EKVX = test system: EKVX
SF-268 = test system: SF-268
HOP-62 = test system: HOP-62
RXF 393 = test system: RXF 393
COLO 205 = test system: COLO 205
RPMI-8226 = test system: RPMI-8226
IGROV-1 = test system: IGROV-1
NCI-H460 = test system: NCI-H460
HCC 2998 = test system: HCC 2998
UACC-62 = test system: UACC-62
SR = test system: SR

Structure (SMILES): O=C1NC(N2CCOCC2)=N/C1=C\c1ccccc1O
- GI50 (M14): > 100 µM (inactive)
- GI50 (U-251): > 100 µM (inactive)
- GI50 (OVCAR-8): > 100 µM (inactive)
- GI50 (MCF7): > 100 µM (inactive)
- GI50 (A498): > 100 µM (inactive)
- GI50 (HOP-92): > 100 µM (inactive)
- GI50 (KM12): > 100 µM (inactive)
- GI50 (UACC-257): > 100 µM (inactive)
- GI50 (A549): > 100 µM (inactive)
- GI50 (SNB-75): > 100 µM (inactive)
- GI50 (DU-145): > 100 µM (inactive)
- GI50 (SK-MEL-5): > 100 µM (inactive)
- GI50 (K562): > 100 µM (inactive)
- GI50 (NCI-H23): > 100 µM (inactive)
- GI50 (SK-OV-3): > 100 µM (inactive)
- GI50 (MOLT-4): > 100 µM (inactive)
- GI50 (SK-MEL-28): > 100 µM (inactive)
- GI50 (OVCAR-5): > 100 µM (inactive)
- GI50 (NCI/ADR-RES): > 100 µM (inactive)
- GI50 (786-0): > 100 µM (inactive)
- GI50 (MDA-N): > 100 µM (inactive)
- GI50 (PC-3): > 100 µM (inactive)
- GI50 (HCT-116): > 100 µM (inactive)
- GI50 (MDA-MB-435): > 100 µM (inactive)
- GI50 (LOX IMVI): > 100 µM (inactive)
- GI50 (NCI-H522): > 100 µM (inactive)
- GI50 (OVCAR-3): > 100 µM (inactive)
- GI50 (T47D): > 100 µM (inactive)
- GI50 (UO-31): > 100 µM (inactive)
- GI50 (SW-620): > 100 µM (inactive)
- GI50 (HCT-15): > 100 µM
- GI50 (HL-60): 58.1 µM (inactive)
- GI50 (HT-29): > 100 µM (inactive)
- GI50 (OVCAR-4): > 100 µM (inactive)
- GI50 (CAKI-1): > 100 µM (inactive)
- GI50 (SF-295): > 100 µM (inactive)
- GI50 (NCI-H226): > 100 µM (inactive)
- GI50 (SNB-19): > 100 µM (inactive)
- GI50 (Malme-3M): > 100 µM (inactive)
- GI50 (SK-MEL-2): > 100 µM (inactive)
- GI50 (ACHN): > 100 µM (inactive)
- GI50 (SN12C): > 100 µM (inactive)
- GI50 (MDA-MB-231): > 100 µM (inactive)
- GI50 (Hs-578T): > 100 µM (inactive)
- GI50 (TK-10): > 100 µM (inactive)
- GI50 (SF-539): > 100 µM (inactive)
- GI50 (CCRF-CEM): > 100 µM (inactive)
- GI50 (EKVX): > 100 µM (inactive)
- GI50 (SF-268): > 100 µM (inactive)
- GI50 (HOP-62): > 100 µM (inactive)
- GI50 (RXF 393): > 100 µM (inactive)
- GI50 (COLO 205): > 100 µM (inactive)
- GI50 (RPMI-8226): > 100 µM (inactive)
- GI50 (IGROV-1): > 100 µM (inactive)

Structure (SMILES): C=CCOc1ccc(C2c3c(n[nH]c3O)CC(O)(OCC)C2C(=O)OCC)cc1OC (stereo not drawn)
- GI50 (M14): > 100 µM (inactive)
- GI50 (U-251): > 100 µM (inactive)
- GI50 (OVCAR-8): > 100 µM (inactive)
- GI50 (MCF7): > 100 µM (inactive)
- GI50 (A498): > 100 µM (inactive)
- GI50 (HOP-92): > 100 µM (inactive)
- GI50 (KM12): > 100 µM (inactive)
- GI50 (UACC-257): > 100 µM (inactive)
- GI50 (A549): > 100 µM (inactive)
- GI50 (SNB-75): > 100 µM (inactive)
- GI50 (DU-145): > 100 µM (inactive)
- GI50 (SK-MEL-5): > 100 µM (inactive)
- GI50 (NCI-H23): > 100 µM (inactive)
- GI50 (MOLT-4): > 100 µM (inactive)
- GI50 (SK-MEL-28): > 100 µM (inactive)
- GI50 (OVCAR-5): > 100 µM (inactive)
- GI50 (NCI/ADR-RES): > 100 µM (inactive)
- GI50 (786-0): > 100 µM (inactive)
- GI50 (MDA-N): > 100 µM (inactive)
- GI50 (PC-3): > 100 µM (inactive)
- GI50 (HCT-116): > 100 µM (inactive)
- GI50 (MDA-MB-435): > 100 µM (inactive)
- GI50 (LOX IMVI): > 100 µM (inactive)
- GI50 (NCI-H522): > 100 µM (inactive)
- GI50 (OVCAR-3): > 100 µM (inactive)
- GI50 (T47D): > 100 µM (inactive)
- GI50 (UO-31): > 100 µM (inactive)
- GI50 (NCI-H460): > 100 µM (inactive)
- GI50 (SW-620): > 100 µM (inactive)
- GI50 (HCT-15): > 100 µM
- GI50 (HL-60): > 100 µM (inactive)
- GI50 (HT-29): > 100 µM (inactive)
- GI50 (OVCAR-4): > 100 µM (inactive)
- GI50 (CAKI-1): > 100 µM (inactive)
- GI50 (SF-295): > 100 µM (inactive)
- GI50 (SNB-19): > 100 µM (inactive)
- GI50 (Malme-3M): > 100 µM (inactive)
- GI50 (SK-MEL-2): > 100 µM (inactive)
- GI50 (ACHN): > 100 µM (inactive)
- GI50 (SN12C): > 100 µM (inactive)
- GI50 (HCC 2998): > 100 µM (inactive)
- GI50 (MDA-MB-231): > 100 µM (inactive)
- GI50 (Hs-578T): > 100 µM (inactive)
- GI50 (UACC-62): 0.1 µM (active)
- GI50 (TK-10): > 100 µM (inactive)
- GI50 (SF-539): > 100 µM (inactive)
- GI50 (CCRF-CEM): > 100 µM (inactive)
- GI50 (EKVX): > 100 µM (inactive)
- GI50 (SF-268): > 100 µM (inactive)
- GI50 (HOP-62): > 100 µM (inactive)
- GI50 (COLO 205): > 100 µM (inactive)
- GI50 (RPMI-8226): > 100 µM (inactive)
- GI50 (IGROV-1): > 100 µM (inactive)

Structure (SMILES): Cc1ccc2nc(N/N=C/c3ccc(C)s3)cc(C)c2c1
- GI50 (M14): 10.2 µM (inactive)
- GI50 (U-251): 9.51 µM (inactive)
- GI50 (OVCAR-8): 12.9 µM (inactive)
- GI50 (MCF7): 6.79 µM (inactive)
- GI50 (HOP-92): 4.44 µM (inactive)
- GI50 (KM12): 4.76 µM (inactive)
- GI50 (UACC-257): 5.56 µM (inactive)
- GI50 (A549): 6.79 µM (inactive)
- GI50 (SNB-75): > 10 µM (inactive)
- GI50 (DU-145): 11 µM (inactive)
- GI50 (SK-MEL-5): 4.56 µM (inactive)
- GI50 (K562): 3.99 µM (inactive)
- GI50 (NCI-H23): 7.98 µM (inactive)
- GI50 (SK-OV-3): 18.3 µM (inactive)
- GI50 (MOLT-4): 5.75 µM (inactive)
- GI50 (SK-MEL-28): 6.76 µM (inactive)
- GI50 (OVCAR-5): 10.1 µM (inactive)
- GI50 (NCI/ADR-RES): 12.3 µM (inactive)
- GI50 (786-0): 3.37 µM (inactive)
- GI50 (MDA-N): 7.8 µM (inactive)
- GI50 (PC-3): 11.8 µM (inactive)
- GI50 (HCT-116): 3.7 µM (inactive)
- GI50 (MDA-MB-435): 7.31 µM (inactive)
- GI50 (LOX IMVI): 4.53 µM (inactive)
- GI50 (NCI-H522): 4.52 µM (inactive)
- GI50 (OVCAR-3): 6.24 µM (inactive)
- GI50 (T47D): 7.91 µM (inactive)
- GI50 (UO-31): 9.82 µM (inactive)
- GI50 (SW-620): 6.1 µM (inactive)
- GI50 (HCT-15): 4.52 µM
- GI50 (HL-60): 4.71 µM (inactive)
- GI50 (HT-29): 3.51 µM (inactive)
- GI50 (OVCAR-4): 10.3 µM (inactive)
- GI50 (CAKI-1): 17.1 µM (inactive)
- GI50 (SF-295): 7.94 µM (inactive)
- GI50 (NCI-H226): 10.1 µM (inactive)
- GI50 (SNB-19): 12.9 µM (inactive)
- GI50 (Malme-3M): 12.8 µM (inactive)
- GI50 (SK-MEL-2): 19 µM (inactive)
- GI50 (ACHN): 11.7 µM (inactive)
- GI50 (SN12C): 12.7 µM (inactive)
- GI50 (HCC 2998): 4.69 µM (inactive)
- GI50 (MDA-MB-231): 16.1 µM (inactive)
- GI50 (Hs-578T): 15.2 µM (inactive)
- GI50 (UACC-62): 10.6 µM (inactive)
- GI50 (TK-10): 8.97 µM (inactive)
- GI50 (SF-539): 11 µM (inactive)
- GI50 (CCRF-CEM): 5.11 µM (inactive)
- GI50 (EKVX): 5.7 µM (inactive)
- GI50 (SF-268): 11.6 µM (inactive)
- GI50 (HOP-62): 15.7 µM (inactive)
- GI50 (RXF 393): 13.3 µM (inactive)
- GI50 (SR): 19.7 µM (inactive)
- GI50 (COLO 205): 3.79 µM (inactive)
- GI50 (RPMI-8226): 3.61 µM (inactive)
- GI50 (IGROV-1): 6.87 µM (inactive)
